From patent US10294202B2, “Pyrrolidinones as herbicides” (FMC Corporation, priority 2013, dated 2019)

What was measured:
giant foxtail = test: Test A pre-/postemergence herbicide test; format: in vivo, Setaria faberii
How it was run: (§1)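 Planted in loam–sand blend; treated the same day preemergence by directed soil spray, while separately grown plants at one- to two-leaf stage got postemergence spray. Compared visually with untreated controls after approximately 10 days; 100 means complete control.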

blackgrass = test: Test A postemergence herbicide test; format: in vivo, Alopecurus myosuroides
How it was run: (§2)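 Ratings compare treated with untreated plants roughly 10 days after a postemergence application made at the one- to two-leaf stage. Scoring uses 0–100, where 0 means no effect and 100 complete control.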

ryegrass, Italian = test: Test A pre-/postemergence herbicide test; format: in vivo, Lolium multiflorum
How it was run: as §1

wheat = test: Test A pre-/postemergence herbicide test; format: in vivo, Triticum aestivum; conditions: Postemergence
How it was run: as §1

rice = test: Test B flooded paddy test; format: in vivo, Oryza sativa; conditions: 500 g ai/ha, Flood; scale of 0 to 100 where 0 is no effect and 100 is complete control
How it was run: (§3)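 In-water application to pots flooded 3 cm deep, plants at 2-leaf stage. Held in greenhouse 13–15 days at constant flood depth. Scored 0–100 by eye against controls.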

ducksalad = test: Test B flooded paddy test; format: in vivo, Heteranthera limosa; conditions: 500 g ai/ha, Flood; scale of 0 to 100 where 0 is no effect and 100 is complete control
How it was run: as §3

barnyardgrass [1] = test: Test A pre-/postemergence herbicide test; format: in vivo, Echinochloa crus-galli
How it was run: as §1

corn = test: Test A pre-/postemergence herbicide test; format: in vivo, Zea mays; conditions: Postemergence
How it was run: as §1

sedge, umbrella = test: Test B flooded paddy test; format: in vivo, Cyperus difformis; conditions: 500 g ai/ha, Flood; scale of 0 to 100 where 0 is no effect and 100 is complete control
How it was run: as §3

kochia = test: Test A pre-/postemergence herbicide test; format: in vivo, Kochia scoparia
How it was run: as §1

pigweed = test: Test A pre-/postemergence herbicide test; format: in vivo, Amaranthus retroflexus
How it was run: as §1

ragweed = test: Test A pre-/postemergence herbicide test; format: in vivo, Ambrosia elatior
How it was run: as §1

barnyardgrass [2] = test: Test B flooded paddy test; format: in vivo, Echinochloa crus-galli; conditions: 500 g ai/ha, Flood; scale of 0 to 100 where 0 is no effect and 100 is complete control
How it was run: as §3

galium = test: Test A postemergence herbicide test; format: in vivo, Galium aparine
How it was run: as §2

[3] = Postemergence, 125 g ai/ha, 0 to 100 scale, 0 is no effect, 100 is complete control
[4] = Postemergence, 500 g ai/ha, 0 to 100 scale (0 no effect, 100 complete control)
[5] = Preemergence, 125 g ai/ha, 0 to 100 scale where 0 is no effect and 100 is complete control
[6] = preemergence, 500 g ai/ha, 0 to 100 scale, 0 is no effect and 100 is complete control
[7] = 125 g ai/ha, 0 to 100 scale, 0 is no effect, 100 is complete control
[8] = 500 g ai/ha, 0 to 100 scale (0 no effect, 100 complete control)
[9] = Postemergence, 125 g ai/ha, visual rating on 0 to 100 scale (0 no effect, 100 complete control), approx. 10 days
[10] = 125 g ai/ha, visual rating on 0 to 100 scale (0 no effect, 100 complete control), approx. 10 days
[11] = 125 g ai/ha, visual rating, 0 to 100 scale, 0 no effect, 100 complete control, approximately 10 days, preemergence

SMILES	Plant response rating, Foxtail, Giant (giant foxtail; [3])	Plant response rating, Foxtail, Giant (giant foxtail; [4])	Plant response rating, Foxtail, Giant (giant foxtail; [5])	Plant response rating, Foxtail, Giant (giant foxtail; [6])	Plant response rating, Blackgrass (blackgrass; [7])	Plant response rating, Blackgrass (blackgrass; [8])	Plant response rating, Ryegrass, Italian (ryegrass, Italian; [9])	Plant response rating, Ryegrass, Italian (ryegrass, Italian; [6])	Plant response rating, Rice (rice)	Plant response rating, Ducksalad (ducksalad)	Plant response rating, Barnyardgrass (barnyardgrass [1]; [3])	Plant response rating, Barnyardgrass (barnyardgrass [1]; [6])	Plant response rating, Corn (corn; [7])	Plant response rating, Sedge, Umbrella (sedge, umbrella)	Plant response rating, Kochia (kochia; [3])	Plant response rating, Kochia (kochia; [6])	Plant response rating, Pigweed (pigweed; [6])	Plant response rating, Ragweed (ragweed; [6])	Plant response rating, Barnyardgrass (barnyardgrass [2])	Plant response rating, Galium (galium; [7])	other results
O=C1NCC(c2ccc(Cl)c(Cl)c2)C1C(=O)Nc1ccc(F)cc1F (racemic) [Compound 272]	60	80	90	90	0	30	0	0	0	100	50	90	0	0	20	20	30	0	20	30	Plant response rating, Ryegrass, Italian (ryegrass, Italian; [4]): 0; Plant response rating, Ryegrass, Italian (ryegrass, Italian; [5]): 0; Plant response rating, Wheat (wheat; [10]): 0; Plant response rating, Wheat (wheat; [8]): 0; Plant response rating, Barnyardgrass (barnyardgrass [1]; [4]): 80; Plant response rating, Barnyardgrass (barnyardgrass [1]; [5]): 70; Plant response rating, Corn (corn; [8]): 10; Plant response rating, Kochia (kochia; [4]): 60; Plant response rating, Kochia (kochia; [5]): 0; Plant response rating, Pigweed (pigweed; [9]): 0; Plant response rating, Pigweed (pigweed; [4]): 20; Plant response rating, Pigweed (pigweed; [5]): 0; Plant response rating, Ragweed (ragweed; [9]): 40; Plant response rating, Ragweed (ragweed; [4]): 0; Plant response rating, Ragweed (ragweed; [5]): 0; Plant response rating, Galium (galium; [8]): 50
O=C1NCC(c2ccc(Cl)c(Cl)c2)C1C(=O)Nc1ccccc1Cl (racemic) [Compound 273]	20	70	90	90	0	0	0	0	0	70	10	80	0	0	0	70	0	0	0	0	Plant response rating, Ryegrass, Italian (ryegrass, Italian; [4]): 0; Plant response rating, Ryegrass, Italian (ryegrass, Italian; [5]): 0; Plant response rating, Wheat (wheat; [10]): 0; Plant response rating, Wheat (wheat; [8]): 0; Plant response rating, Barnyardgrass (barnyardgrass [1]; [4]): 30; Plant response rating, Barnyardgrass (barnyardgrass [1]; [5]): 50; Plant response rating, Corn (corn; [8]): 0; Plant response rating, Kochia (kochia; [4]): 0; Plant response rating, Kochia (kochia; [5]): 0; Plant response rating, Pigweed (pigweed; [9]): 0; Plant response rating, Pigweed (pigweed; [4]): 0; Plant response rating, Pigweed (pigweed; [5]): 0; Plant response rating, Ragweed (ragweed; [9]): 0; Plant response rating, Ragweed (ragweed; [4]): 0; Plant response rating, Ragweed (ragweed; [5]): 0; Plant response rating, Galium (galium; [8]): 50
CCCN1CC(c2ccc(C(F)(F)F)cc2)C(C(=O)Nc2ccccc2F)C1=O (stereo not drawn) [Compound 181]	0			70	40			0	0	0	0	0	0	0	10	80	0	0	0	0	Plant response rating, Foxtail, Giant (giant foxtail; [11]): 10; Foxtail, Giant plant response rating (0 to 100 scale, 0 is no effect, 100 is complete control) (giant foxtail; Postemergence, 500 g ai/ha): 0; Blackgrass plant response rating (0 to 100 scale, 0 is no effect, 100 is complete control) (blackgrass; 500 g ai/ha): 50; Plant response rating, Ryegrass, Italian (ryegrass, Italian; [11]): 0; Plant response rating, Ryegrass, Italian (ryegrass, Italian; [3]): 0; Ryegrass, Italian plant response rating (0 to 100 scale, 0 is no effect, 100 is complete control) (ryegrass, Italian; Postemergence, 500 g ai/ha): 0; Plant response rating, Wheat (wheat; [7]): 0; Wheat plant response rating (0 to 100 scale, 0 is no effect, 100 is complete control) (wheat; 500 g ai/ha): 0; Plant response rating, Barnyardgrass (barnyardgrass [1]; [11]): 0; Barnyardgrass plant response rating (0 to 100 scale, 0 is no effect, 100 is complete control) (barnyardgrass [1]; Postemergence, 500 g ai/ha): 0; Corn plant response rating (0 to 100 scale, 0 is no effect, 100 is complete control) (corn; 500 g ai/ha): 0; Plant response rating, Kochia (kochia; [11]): 50; Kochia plant response rating (0 to 100 scale, 0 is no effect, 100 is complete control) (kochia; Postemergence, 500 g ai/ha): 70; Plant response rating, Pigweed (pigweed; [11]): 0; Plant response rating, Pigweed (pigweed; [3]): 0; Pigweed plant response rating (0 to 100 scale, 0 is no effect, 100 is complete control) (pigweed; Postemergence, 500 g ai/ha): 50; Plant response rating, Ragweed (ragweed; [11]): 0; Plant response rating, Ragweed (ragweed; [3]): 0; Ragweed plant response rating (0 to 100 scale, 0 is no effect, 100 is complete control) (ragweed; Postemergence, 500 g ai/ha): 0; Galium plant response rating (0 to 100 scale, 0 is no effect, 100 is complete control) (galium; 500 g ai/ha): 0
